Test results published in ChEMBL document CHEMBL1201862, “PubChem BioAssay data set” (2004).
Activity calls are given as the source filed them.

Columns and labels:
[1] = molecular target: T1, Tyrosine-protein phosphatase non-receptor type 22 (Homo sapiens, UniProt Q9Y2R2); experiment: LYP (PTPN22) phosphatase inhibitor potency, SAR follow-up, biochemical, pCAP fluorogenic substrate, fluorescence, set 3 (AID 449727); assay type: functional
T1 sequence (Q9Y2R2 whole entry): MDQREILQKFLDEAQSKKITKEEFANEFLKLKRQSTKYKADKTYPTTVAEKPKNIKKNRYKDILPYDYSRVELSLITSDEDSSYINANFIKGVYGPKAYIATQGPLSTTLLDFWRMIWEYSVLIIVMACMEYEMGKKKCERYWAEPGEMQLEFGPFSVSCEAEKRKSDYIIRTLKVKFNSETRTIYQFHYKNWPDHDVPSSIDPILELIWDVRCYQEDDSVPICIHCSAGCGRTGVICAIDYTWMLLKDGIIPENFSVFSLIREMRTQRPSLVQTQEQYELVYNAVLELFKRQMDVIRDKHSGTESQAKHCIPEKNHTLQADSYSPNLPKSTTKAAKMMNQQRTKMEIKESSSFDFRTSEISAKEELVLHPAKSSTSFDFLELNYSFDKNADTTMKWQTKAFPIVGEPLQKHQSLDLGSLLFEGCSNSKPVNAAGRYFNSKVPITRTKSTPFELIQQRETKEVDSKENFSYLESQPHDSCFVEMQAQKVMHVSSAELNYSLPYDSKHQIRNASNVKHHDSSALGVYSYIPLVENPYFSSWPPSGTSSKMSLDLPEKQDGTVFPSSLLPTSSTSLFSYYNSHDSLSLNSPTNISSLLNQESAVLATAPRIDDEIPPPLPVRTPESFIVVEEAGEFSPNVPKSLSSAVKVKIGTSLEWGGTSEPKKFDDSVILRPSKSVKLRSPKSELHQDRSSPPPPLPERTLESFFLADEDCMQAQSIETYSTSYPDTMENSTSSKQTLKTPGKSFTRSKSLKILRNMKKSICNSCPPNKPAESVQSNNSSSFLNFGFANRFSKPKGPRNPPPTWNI

[2] = molecular target: T1, Tyrosine-protein phosphatase non-receptor type 22; experiment: PubChem AID 2135
[3] = molecular target: T1, Tyrosine-protein phosphatase non-receptor type 22; experiment: PubChem AID 2140
[4] = Vero E6 cell cytotoxicity, dose response, cytotoxicity control for non-replicating M. tuberculosis project, secondary assay (AID 492998); assay type: functional, VeroE6; details: Vero C1008
[5] = molecular target: DNA damage-inducible transcript 3 protein (Mus musculus, UniProt P35639); assay type: functional, Cricetulus griseus
X-box-binding protein 1 = X-box-binding protein 1 (Homo sapiens, UniProt P17861); assay type: functional, Cricetulus griseus;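 further: confirmatory dose-response counter-screen serving a CHOP assay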
[6] = molecular target: Voltage-dependent T-type calcium channel subunit alpha-1H (Homo sapiens, UniProt O95180); experiment: Cav3.2 T-type channel inhibitors, synthesized analogs, SAR follow-up, cell-based, synthetic library set 2, HEK293 HH8, Fluo-4 (AID 493023); assay type: functional
Bcl-2-related protein A1 = molecular target: T2, Bcl-2-related protein A1 (Mus musculus, UniProt Q07440); assay type: functional;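 further: confirmatory dose–response counterscreen on Bfl-1, used to check hits from a UBC13 polyubiquitin inhibitor campaign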
T2 sequence (Q07440 whole entry): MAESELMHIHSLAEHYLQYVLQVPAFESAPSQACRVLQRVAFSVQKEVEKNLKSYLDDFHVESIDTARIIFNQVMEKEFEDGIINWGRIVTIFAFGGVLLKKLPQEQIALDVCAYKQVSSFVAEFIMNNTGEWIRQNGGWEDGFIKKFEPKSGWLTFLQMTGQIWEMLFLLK

[7] = molecular target: T3, Ubiquitin-conjugating enzyme E2 N (Homo sapiens, UniProt P61088); assay type: functional
T3 sequence (P61088 whole entry): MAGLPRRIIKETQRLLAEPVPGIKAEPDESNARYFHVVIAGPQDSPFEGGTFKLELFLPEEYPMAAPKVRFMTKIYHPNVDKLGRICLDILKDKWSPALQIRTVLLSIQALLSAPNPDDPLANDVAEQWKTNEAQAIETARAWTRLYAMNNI

[8] = molecular target: T3, Ubiquitin-conjugating enzyme E2 N; assay type: functional; remark: listed apart in the source
[9] = molecular target: T4, Type-1 angiotensin II receptor (Homo sapiens, UniProt P30556); experiment: AT1 receptor agonists, dose response, selectivity assay for APJ receptor agonist project, cell-based, uHTS hits (AID 488865); assay type: functional;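 further: beta-arrestin recruitment to AT1 measured by enzyme fragment complementation luminescence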
T4 sequence (P30556 whole entry): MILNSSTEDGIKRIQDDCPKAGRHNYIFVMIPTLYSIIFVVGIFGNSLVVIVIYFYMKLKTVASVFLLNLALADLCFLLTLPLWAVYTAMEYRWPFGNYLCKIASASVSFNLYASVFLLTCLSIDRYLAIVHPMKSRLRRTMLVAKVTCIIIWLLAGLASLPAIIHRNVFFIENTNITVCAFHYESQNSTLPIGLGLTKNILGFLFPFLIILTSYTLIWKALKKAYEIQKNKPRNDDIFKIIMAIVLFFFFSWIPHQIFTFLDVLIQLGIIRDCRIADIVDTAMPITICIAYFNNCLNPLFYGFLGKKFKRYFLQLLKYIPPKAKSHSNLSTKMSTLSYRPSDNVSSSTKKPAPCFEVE

[10] = molecular target: T5, DNA repair protein RAD52 homolog (Homo sapiens, UniProt P43351); assay type: functional, biochemical
T5 sequence (P43351 whole entry): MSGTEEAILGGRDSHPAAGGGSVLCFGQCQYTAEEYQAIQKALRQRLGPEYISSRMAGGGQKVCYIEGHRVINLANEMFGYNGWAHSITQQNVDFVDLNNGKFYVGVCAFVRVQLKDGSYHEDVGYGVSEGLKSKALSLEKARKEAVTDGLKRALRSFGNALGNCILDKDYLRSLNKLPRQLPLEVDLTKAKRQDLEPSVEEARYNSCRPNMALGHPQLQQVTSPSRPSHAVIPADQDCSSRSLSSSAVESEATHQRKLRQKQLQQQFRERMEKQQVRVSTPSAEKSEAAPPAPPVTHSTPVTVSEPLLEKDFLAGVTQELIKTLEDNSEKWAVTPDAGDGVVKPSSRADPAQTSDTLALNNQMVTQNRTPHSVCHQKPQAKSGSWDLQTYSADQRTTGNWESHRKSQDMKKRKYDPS

Sequence of Voltage-dependent T-type calcium channel subunit alpha-1H (O95180 whole entry): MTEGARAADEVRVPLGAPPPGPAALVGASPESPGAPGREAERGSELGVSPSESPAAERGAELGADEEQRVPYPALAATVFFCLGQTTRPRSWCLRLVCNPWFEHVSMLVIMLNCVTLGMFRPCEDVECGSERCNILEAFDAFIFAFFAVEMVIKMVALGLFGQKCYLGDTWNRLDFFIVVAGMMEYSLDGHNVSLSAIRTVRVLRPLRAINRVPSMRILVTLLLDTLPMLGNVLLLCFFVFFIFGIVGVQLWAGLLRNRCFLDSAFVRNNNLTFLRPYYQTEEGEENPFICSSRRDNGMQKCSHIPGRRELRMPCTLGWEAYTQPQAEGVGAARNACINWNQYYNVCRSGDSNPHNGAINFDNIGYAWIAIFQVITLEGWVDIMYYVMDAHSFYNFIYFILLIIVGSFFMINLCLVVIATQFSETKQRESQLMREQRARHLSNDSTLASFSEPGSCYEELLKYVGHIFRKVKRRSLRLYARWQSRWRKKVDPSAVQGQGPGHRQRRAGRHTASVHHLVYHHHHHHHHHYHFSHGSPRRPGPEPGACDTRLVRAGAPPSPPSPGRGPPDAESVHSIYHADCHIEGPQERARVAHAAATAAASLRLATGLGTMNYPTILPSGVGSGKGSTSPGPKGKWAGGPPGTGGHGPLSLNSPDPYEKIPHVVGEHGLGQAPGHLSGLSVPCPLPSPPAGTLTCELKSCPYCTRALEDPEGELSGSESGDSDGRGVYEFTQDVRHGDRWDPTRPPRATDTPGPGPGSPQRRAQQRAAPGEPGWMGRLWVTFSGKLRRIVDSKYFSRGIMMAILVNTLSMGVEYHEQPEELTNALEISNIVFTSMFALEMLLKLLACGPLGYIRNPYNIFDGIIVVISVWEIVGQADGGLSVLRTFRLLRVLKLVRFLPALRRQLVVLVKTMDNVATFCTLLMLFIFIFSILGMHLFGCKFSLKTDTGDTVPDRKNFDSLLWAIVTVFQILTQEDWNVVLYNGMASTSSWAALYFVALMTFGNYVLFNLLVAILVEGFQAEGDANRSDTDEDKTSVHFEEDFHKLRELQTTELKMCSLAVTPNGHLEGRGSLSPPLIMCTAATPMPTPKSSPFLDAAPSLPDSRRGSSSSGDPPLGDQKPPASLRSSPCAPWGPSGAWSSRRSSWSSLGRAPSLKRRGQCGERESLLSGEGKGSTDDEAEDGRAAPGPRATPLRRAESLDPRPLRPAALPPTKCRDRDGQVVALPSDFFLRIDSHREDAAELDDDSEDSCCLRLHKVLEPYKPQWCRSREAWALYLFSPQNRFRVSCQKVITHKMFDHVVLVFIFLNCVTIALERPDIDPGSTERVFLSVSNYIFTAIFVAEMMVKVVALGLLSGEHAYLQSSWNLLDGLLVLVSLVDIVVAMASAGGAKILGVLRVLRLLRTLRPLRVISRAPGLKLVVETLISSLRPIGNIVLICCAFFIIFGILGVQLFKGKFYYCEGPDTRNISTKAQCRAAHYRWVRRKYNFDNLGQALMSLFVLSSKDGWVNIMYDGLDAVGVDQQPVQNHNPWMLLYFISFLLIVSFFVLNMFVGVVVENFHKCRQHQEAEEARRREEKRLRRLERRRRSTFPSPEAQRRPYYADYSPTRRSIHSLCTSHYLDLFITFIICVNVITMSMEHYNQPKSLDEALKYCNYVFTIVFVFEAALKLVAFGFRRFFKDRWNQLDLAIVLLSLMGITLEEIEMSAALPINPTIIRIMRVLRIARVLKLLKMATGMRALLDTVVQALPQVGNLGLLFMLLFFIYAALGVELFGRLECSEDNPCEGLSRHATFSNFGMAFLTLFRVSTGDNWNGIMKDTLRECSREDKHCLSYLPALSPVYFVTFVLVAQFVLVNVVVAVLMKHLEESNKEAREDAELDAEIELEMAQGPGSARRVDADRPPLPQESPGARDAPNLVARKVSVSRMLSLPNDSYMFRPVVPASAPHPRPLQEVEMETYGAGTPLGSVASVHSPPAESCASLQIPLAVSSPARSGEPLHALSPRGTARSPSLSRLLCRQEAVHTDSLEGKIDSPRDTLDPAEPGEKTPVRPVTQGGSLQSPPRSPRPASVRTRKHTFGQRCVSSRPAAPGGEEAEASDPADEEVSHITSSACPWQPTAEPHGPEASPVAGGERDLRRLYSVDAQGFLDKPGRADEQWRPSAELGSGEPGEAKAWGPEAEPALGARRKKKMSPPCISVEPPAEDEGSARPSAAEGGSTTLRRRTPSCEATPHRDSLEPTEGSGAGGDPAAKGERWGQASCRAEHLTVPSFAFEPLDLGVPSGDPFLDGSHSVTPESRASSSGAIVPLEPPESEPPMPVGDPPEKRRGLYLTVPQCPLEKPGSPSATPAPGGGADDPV
Sequence of X-box-binding protein 1 (P17861 whole entry): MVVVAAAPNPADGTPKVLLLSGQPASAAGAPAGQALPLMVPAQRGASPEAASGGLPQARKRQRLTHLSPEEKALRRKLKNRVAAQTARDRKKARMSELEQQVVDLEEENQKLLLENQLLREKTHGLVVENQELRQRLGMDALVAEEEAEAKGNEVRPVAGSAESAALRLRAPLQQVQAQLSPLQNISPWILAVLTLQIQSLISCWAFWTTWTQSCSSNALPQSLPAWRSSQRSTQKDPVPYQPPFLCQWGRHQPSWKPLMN
Sequence of DNA damage-inducible transcript 3 protein (P35639 whole entry): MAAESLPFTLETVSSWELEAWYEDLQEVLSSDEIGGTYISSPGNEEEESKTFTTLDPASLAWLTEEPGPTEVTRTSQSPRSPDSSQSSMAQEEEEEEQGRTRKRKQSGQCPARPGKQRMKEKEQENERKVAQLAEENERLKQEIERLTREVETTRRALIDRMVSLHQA

CCOc1ccc2nc(NC(=O)CSC3=Nc4sc(C)c(C)c4C(=O)C3)sc2c1
IC50 [1]: > 100 µM (inactive)
IC50 [2]: > 100 µM (inactive)
IC50 [3]: 43.4 µM (active)

O=C1NN(c2ccccc2)C(=O)/C1=C/c1ccc(Sc2ccc(Cl)cc2)o1
CC50 [4]: > 20 µM (active)
Absolute IC50 (CHOP) [5]: 10 µM
Absolute IC50 (XBP1) (X-box-binding protein 1): 10 µM

CC(C)(C)CCN1CCC[C@H](NC(=O)COc2ccccc2F)C1
EC50 [6]: 10 µM (active)

COc1cccc2sc(N(CCCN(C)C)C(=O)c3ccc(S(=O)(=O)N4CCc5ccccc5C4)cc3)nc12
IC50 (Bcl-2-related protein A1): > 20 µM (inactive)
IC50 [7]: 13.9 µM (active)
IC50 [8]: 10.8 µM (active)
EC50 [9]: > 100 µM (inactive)
AC50 [10]: 23.1 µM (active)
